Experiments:
Assay in all cases: Chemotherapeutic activity against systemic infection in mice
Type in all cases: in vivo
Escherichia coli 2018 = conditions: systemic infection in mice with Escherichia coli 2018; oral application
Procedure: (§1) Die Verbindungen der Formel I, worin Am eine freie Aminogruppe ist und ihre pharmazeutisch verwendbaren, nichttoxischen Salze sind wertvolle, antibiotisch wirksame Substanzen, die insbesondere als antibakterielle Antibiotika verwendet werden können. Beispielsweise haben sie in vivo bei oraler Applikation an der Maus bei systemischen Infektionen mit Staphylococcus aureus eine ED50 von etwa 70-100 mg/kg, und bei systemischen Infektionen mit Enterobakterien, z.B. Escherichia coli, Klebsiella pneumonia, Proteus mirabilis oder Proteus morganii eine ED50 von etwa 0.35 bis 100 mg/kg.
(§2) Chemotherapeutische Wirksamkeit gegen systemische Infektionen in Mäusen.

Escherichia coli 205 = conditions: systemic infection in mice with Escherichia coli 205; oral application
Procedure: as §1, §2

Klebsiella pneumonia = conditions: Klebsiella pneumoniae; systemic infection in mice with Klebsiella pneumonia; oral application
Procedure: as §1, §2

Proteus mirabilis = conditions: systemic infection in mice with Proteus mirabilis; oral application
Procedure: as §1, §2

Proteus morganii = conditions: Morganella morganii; systemic infection in mice with Proteus morganii; oral application
Procedure: as §1, §2

[1] = tested on: Staphylococcus aureus 10B; conditions: systemic infection in mice with Staphylococcus aureus 10B; oral application
Procedure: as §1, §2

| SMILES | ED50 (Escherichia coli 2018) | ED50 (Escherichia coli 205) | ED50 (Klebsiella pneumonia) | ED50 (Proteus mirabilis) | ED50 (Proteus morganii) | ED50 [1] |
| --- | --- | --- | --- | --- | --- | --- |
| CO/N=C(\C(=O)N[C@@H]1C(=O)N2C(C(=O)OCC(=O)O[C@@H]3C[C@@H]4CC[C@@]3(C)C4(C)C)=CCS[C@H]12)c1csc(N)n1 [Testverbindung 1, Ceftizoxime-(ℓ)-bornyloxycarbonylmethylester] | 0.35 mg/kg | 1 mg/kg | 6 mg/kg | 10 mg/kg | 30 mg/kg | 70 mg/kg |
| CO/N=C(\C(=O)N[C@@H]1C(=O)N2C(C(=O)OCC(=O)OC3CCCCC3)=CCS[C@H]12)c1csc(N)n1 [Testverbindung 2, Ceftizoxime-cyclohexyloxycarbonylmethylester] | 0.4 mg/kg | 0.5 to 5 mg/kg | 7 mg/kg | > 30 mg/kg | > 100 mg/kg | > 100 mg/kg |
| CO/N=C(\C(=O)N[C@@H]1C(=O)N2C(C(=O)OCC(=O)O[C@@H]3C[C@H](C)CC[C@H]3C(C)C)=CCS[C@H]12)c1csc(N)n1 [Testverbindung 3, Ceftizoxime-(9)-menthyloxycarbonylmethylester] | 1.5 mg/kg | 4 mg/kg | 4 mg/kg | ≥ 30 mg/kg | 100 mg/kg | 30 to 100 mg/kg |

Reference: patent EP0097127A2, “Cephalosporin derivatives, process for their preparation and pharmaceutical compositions containing them” (CIBA-GEIGY AG, priority 1982, dated 1983)
